Earlier results on 2 compounds are cited in patent US20100048598A1, “TOPICAL COMPOSITIONS COMPRISING 5-ALPHA REDUCTASE INHIBITORS” (priority 2008, published 2010).

In one data set the target is T1, type II 5α-reductase (Homo sapiens, UniProt P31213).
T1 sequence (P31213 1-254): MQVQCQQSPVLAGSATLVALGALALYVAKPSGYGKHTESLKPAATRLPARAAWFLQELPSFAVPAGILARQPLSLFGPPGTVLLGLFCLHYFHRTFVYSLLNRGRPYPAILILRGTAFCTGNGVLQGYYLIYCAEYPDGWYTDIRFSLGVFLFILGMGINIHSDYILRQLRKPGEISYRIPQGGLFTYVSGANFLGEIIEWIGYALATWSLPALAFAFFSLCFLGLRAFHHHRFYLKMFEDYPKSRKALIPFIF
The conditions noted are these: relative to finasteride.

A further data set has as its target T2, type I 5α-reductase (Homo sapiens, UniProt P18405).
T2 sequence (P18405 1-259): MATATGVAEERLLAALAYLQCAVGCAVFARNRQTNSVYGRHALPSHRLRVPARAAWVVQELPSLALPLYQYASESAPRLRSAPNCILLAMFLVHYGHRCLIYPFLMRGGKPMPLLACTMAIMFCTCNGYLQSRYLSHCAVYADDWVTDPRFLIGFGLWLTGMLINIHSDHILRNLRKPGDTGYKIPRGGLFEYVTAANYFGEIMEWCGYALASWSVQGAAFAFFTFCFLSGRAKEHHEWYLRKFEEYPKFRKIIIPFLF
The note with it: relative to finasteride.

For data set [1] the following is noted: orally administered.
Another data set relates to DHT. The note with it: daily oral 1 mg dose.
Another data set has as its system androgenic alopecia. The note with it: 1 mg/day, treated men.

As for `C[C@]12C=CC(=O)N[C@@H]1CC[C@@H]1[C@@H]2CC[C@]2(C)[C@@H](C(=O)Nc3cc(C(F)(F)F)ccc3C(F)(F)F)CC[C@@H]12` [Dutasteride, (5α,17β)-N-{2,5-bis(trifluoromethyl)phenyl}-3-oxo-4-azaandrost-1-ene-17-carboxamide], the “potency at inhibiting type II 5α-reductase as compared with finasteride” value on type II 5α-reductase is listed as “approximately 3 times”. Further, the “potency at inhibiting the type I isoform as compared with finasteride” value on type I 5α-reductase is on record as “more than 100 times”. The solubility in ethanol entry (ethanol) was “soluble”. Moreover, the solubility in methanol result (methanol) was “soluble”. Under “polyethylene glycol 400”, the “solubility in polyethylene glycol 400” value was “soluble”. Moreover, the solubility in water entry (water) is listed as “insoluble”. Further, the Absolute bioavailability result in data set [1] is “about 60%”. Moreover, the “Absolute bioavailability, range” value in data set [1] (range in brackets) is listed as 40%-94%.
On to `CC(C)(C)NC(=O)[C@H]1CC[C@H]2[C@@H]3CC[C@H]4NC(=O)C=C[C@]4(C)[C@H]3CC[C@]12C` [Finasteride], for which, in the data set on DHT, the “scalp DHT reduction” value was 64% and the “serum DHT reduction” value is recorded as 68%. For the same compound, in the data set on androgenic alopecia, the “progression of hair loss and hair growth compared with control group” value is “slowed the progression of hair loss and increased hair growth”.
